# Data reported in the supplement of paper PMC8671470.
# Tested on: Mono-Mac-6
# Assay: cell viability (% survival relative to DMSO control, bortezomib = 0%); higher = less cytotoxic
# Conditions: 10000 nM; 72 h
# Outline: (§1)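 Percent survival figures are means of duplicate wells. They were obtained by CellTiter-Glo luminescence after 10 AML and 5 CML cell lines spent 72 h at 37 °C with 5% CO2 in 384-well plates with compounds at 1, 10, 100, 1000 or 10000 nM. Vehicle was set to 100% and a 10 µM positive control to 0%.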
row,Compound,cell viability [%]
1,COc1ccc(S(=O)(=O)N2CCN(S(=O)(=O)c3ccc4c(c3)OCCO4)CC2)cc1 [BML283],98.6
2,O=c1cc(-c2ccccc2)oc2cc(O)c(O)c(O)c12 [Baicalein],75.4
3,COC(=O)[C@]12CCC(C)(C)C[C@H]1[C@H]1C(=O)C=C3[C@@]4(C)C=C(C#N)C(=O)C(C)(C)[C@@H]4CC[C@@]3(C)[C@]1(C)CC2 [Bardoxolone methyl],13.7
4,O=c1oc2c(O)c(O)cc3c(=O)oc4c(O)c(O)cc1c4c23 [Benzoaric Acid],118
5,Cc1c(-c2ccc(-c3ccccc3F)cc2)nc2ccc(F)cc2c1C(=O)O [Brequinar],50.2
6,O=C1O/C(=C/Br)CCC1c1cccc2ccccc12 (stereo unspecified) [Bromoenol Lactone],52.7
7,O=C(O)CCCCC(CCSCc1ccccc1)SCc1ccccc1 (stereo unspecified) [CPI-613],96.3
8,CC(C)c1cc2c(c(O)c1O)[C@@]1(C(=O)O)CCCC(C)(C)[C@@H]1CC2 [Carnosic acid],64.3
9,CCN(CC)CCCC(C)Nc1ccnc2cc(Cl)ccc12 (stereo unspecified) [Chloroquine],92.1
10,Nc1nc(Cl)nc2c1ncn2[C@H]1C[C@H](O)[C@@H](CO)O1 [Cladribine],-0.125
11,NCCCC(N)(C(=O)O)C(F)F (stereo unspecified) [Difluoromethylornithine],93.3

# Tested on: KU-812
# Assay: as above
# Conditions: 1 nM; 72 h
# Outline: as §1
row,Compound,cell viability [%]
1,COc1ccc(S(=O)(=O)N2CCN(S(=O)(=O)c3ccc4c(c3)OCCO4)CC2)cc1 [BML283],90.3
2,O=c1cc(-c2ccccc2)oc2cc(O)c(O)c(O)c12 [Baicalein],93.5
3,COC(=O)[C@]12CCC(C)(C)C[C@H]1[C@H]1C(=O)C=C3[C@@]4(C)C=C(C#N)C(=O)C(C)(C)[C@@H]4CC[C@@]3(C)[C@]1(C)CC2 [Bardoxolone methyl],84.9
4,O=c1oc2c(O)c(O)cc3c(=O)oc4c(O)c(O)cc1c4c23 [Benzoaric Acid],98.4
5,Cc1c(-c2ccc(-c3ccccc3F)cc2)nc2ccc(F)cc2c1C(=O)O [Brequinar],87.2
6,O=C1O/C(=C/Br)CCC1c1cccc2ccccc12 (stereo unspecified) [Bromoenol Lactone],98.3
7,O=C(O)CCCCC(CCSCc1ccccc1)SCc1ccccc1 (stereo unspecified) [CPI-613],98.9
8,CC(C)c1cc2c(c(O)c1O)[C@@]1(C(=O)O)CCCC(C)(C)[C@@H]1CC2 [Carnosic acid],94.3
9,CCN(CC)CCCC(C)Nc1ccnc2cc(Cl)ccc12 (stereo unspecified) [Chloroquine],109
10,Nc1nc(Cl)nc2c1ncn2[C@H]1C[C@H](O)[C@@H](CO)O1 [Cladribine],112
11,NCCCC(N)(C(=O)O)C(F)F (stereo unspecified) [Difluoromethylornithine],116

# Same assay, conditions: 10 nM; 72 h
row,Compound,cell viability [%]
1,COc1ccc(S(=O)(=O)N2CCN(S(=O)(=O)c3ccc4c(c3)OCCO4)CC2)cc1 [BML283],99.5
2,O=c1cc(-c2ccccc2)oc2cc(O)c(O)c(O)c12 [Baicalein],94.1
3,COC(=O)[C@]12CCC(C)(C)C[C@H]1[C@H]1C(=O)C=C3[C@@]4(C)C=C(C#N)C(=O)C(C)(C)[C@@H]4CC[C@@]3(C)[C@]1(C)CC2 [Bardoxolone methyl],104
4,O=c1oc2c(O)c(O)cc3c(=O)oc4c(O)c(O)cc1c4c23 [Benzoaric Acid],97
5,Cc1c(-c2ccc(-c3ccccc3F)cc2)nc2ccc(F)cc2c1C(=O)O [Brequinar],95.4
6,O=C1O/C(=C/Br)CCC1c1cccc2ccccc12 (stereo unspecified) [Bromoenol Lactone],93.3
7,O=C(O)CCCCC(CCSCc1ccccc1)SCc1ccccc1 (stereo unspecified) [CPI-613],94.3
8,CC(C)c1cc2c(c(O)c1O)[C@@]1(C(=O)O)CCCC(C)(C)[C@@H]1CC2 [Carnosic acid],100
9,CCN(CC)CCCC(C)Nc1ccnc2cc(Cl)ccc12 (stereo unspecified) [Chloroquine],97.8
10,Nc1nc(Cl)nc2c1ncn2[C@H]1C[C@H](O)[C@@H](CO)O1 [Cladribine],101
11,NCCCC(N)(C(=O)O)C(F)F (stereo unspecified) [Difluoromethylornithine],96.2

# Same assay, conditions: 100 nM; 72 h
row,Compound,cell viability [%]
1,COc1ccc(S(=O)(=O)N2CCN(S(=O)(=O)c3ccc4c(c3)OCCO4)CC2)cc1 [BML283],103
2,O=c1cc(-c2ccccc2)oc2cc(O)c(O)c(O)c12 [Baicalein],99.4
3,COC(=O)[C@]12CCC(C)(C)C[C@H]1[C@H]1C(=O)C=C3[C@@]4(C)C=C(C#N)C(=O)C(C)(C)[C@@H]4CC[C@@]3(C)[C@]1(C)CC2 [Bardoxolone methyl],113
4,O=c1oc2c(O)c(O)cc3c(=O)oc4c(O)c(O)cc1c4c23 [Benzoaric Acid],95.1
5,Cc1c(-c2ccc(-c3ccccc3F)cc2)nc2ccc(F)cc2c1C(=O)O [Brequinar],93.1
6,O=C1O/C(=C/Br)CCC1c1cccc2ccccc12 (stereo unspecified) [Bromoenol Lactone],102
7,O=C(O)CCCCC(CCSCc1ccccc1)SCc1ccccc1 (stereo unspecified) [CPI-613],99.6
8,CC(C)c1cc2c(c(O)c1O)[C@@]1(C(=O)O)CCCC(C)(C)[C@@H]1CC2 [Carnosic acid],89.4
9,CCN(CC)CCCC(C)Nc1ccnc2cc(Cl)ccc12 (stereo unspecified) [Chloroquine],102
10,Nc1nc(Cl)nc2c1ncn2[C@H]1C[C@H](O)[C@@H](CO)O1 [Cladribine],53.3
11,NCCCC(N)(C(=O)O)C(F)F (stereo unspecified) [Difluoromethylornithine],83.1

# Same assay, conditions: 1000 nM; 72 h
row,Compound,cell viability [%]
1,COc1ccc(S(=O)(=O)N2CCN(S(=O)(=O)c3ccc4c(c3)OCCO4)CC2)cc1 [BML283],108
2,O=c1cc(-c2ccccc2)oc2cc(O)c(O)c(O)c12 [Baicalein],108
3,COC(=O)[C@]12CCC(C)(C)C[C@H]1[C@H]1C(=O)C=C3[C@@]4(C)C=C(C#N)C(=O)C(C)(C)[C@@H]4CC[C@@]3(C)[C@]1(C)CC2 [Bardoxolone methyl],91.3
4,O=c1oc2c(O)c(O)cc3c(=O)oc4c(O)c(O)cc1c4c23 [Benzoaric Acid],92.4
5,Cc1c(-c2ccc(-c3ccccc3F)cc2)nc2ccc(F)cc2c1C(=O)O [Brequinar],100
6,O=C1O/C(=C/Br)CCC1c1cccc2ccccc12 (stereo unspecified) [Bromoenol Lactone],86.1
7,O=C(O)CCCCC(CCSCc1ccccc1)SCc1ccccc1 (stereo unspecified) [CPI-613],105
8,CC(C)c1cc2c(c(O)c1O)[C@@]1(C(=O)O)CCCC(C)(C)[C@@H]1CC2 [Carnosic acid],92.6
9,CCN(CC)CCCC(C)Nc1ccnc2cc(Cl)ccc12 (stereo unspecified) [Chloroquine],98.1
10,Nc1nc(Cl)nc2c1ncn2[C@H]1C[C@H](O)[C@@H](CO)O1 [Cladribine],16.5
11,NCCCC(N)(C(=O)O)C(F)F (stereo unspecified) [Difluoromethylornithine],99.3

# Same assay, conditions: 10000 nM; 72 h
row,Compound,cell viability [%]
1,COc1ccc(S(=O)(=O)N2CCN(S(=O)(=O)c3ccc4c(c3)OCCO4)CC2)cc1 [BML283],96.5
2,O=c1cc(-c2ccccc2)oc2cc(O)c(O)c(O)c12 [Baicalein],61.4
3,COC(=O)[C@]12CCC(C)(C)C[C@H]1[C@H]1C(=O)C=C3[C@@]4(C)C=C(C#N)C(=O)C(C)(C)[C@@H]4CC[C@@]3(C)[C@]1(C)CC2 [Bardoxolone methyl],59.2
4,O=c1oc2c(O)c(O)cc3c(=O)oc4c(O)c(O)cc1c4c23 [Benzoaric Acid],110
5,Cc1c(-c2ccc(-c3ccccc3F)cc2)nc2ccc(F)cc2c1C(=O)O [Brequinar],80.8
6,O=C1O/C(=C/Br)CCC1c1cccc2ccccc12 (stereo unspecified) [Bromoenol Lactone],45.8
